Test results taken from article PMC6413952, “Discovery of ABBV-4083, a novel analog of Tylosin A that has potent anti-Wolbachia and anti-filarial activity” (PLoS Neglected Tropical Diseases, 2019).

Experiments:
[1] = system: Wolbachia pipientis in Aedes albopictus C6/36 (wAlbB) insect cells; assay: A·WOL Wolbachia-infected Aedes albopictus (C6/36 wAlbB) 7-day cell-based assay, high content imaging; settings: for activity against Wolbachia: commercially available 16-membered macrolides
Description: Compounds were screened for anti-Wolbachia activity in vitro in the A·WOL-validated Wolbachia-infected Aedes albopictus (C6/36 wAlbB) 7-day cell-based assay which utilizes a 384-well format assay with high content imaging (HCI) (Operetta) as described previously.
We began our work by selecting a diverse and representative sample of the AbbVie antibiotics collection (129 compounds) for single-point testing against Wolbachia pipientis in an insect cell line. […] While TylA has a long history of use in multiple animal species, it has never been studied in humans; and its activity against Wolbachia has not previously been reported.

[2] = Rat oral pharmacokinetic study (plasma AUC, C8hr); assay type: in vivo, Sprague-Dawley rats; settings: for C*8hr / C*8hr/ EC50 / AUC*/EC50: PO rats; for AUC* parent / AUC* TylA (metabolite): PO, Sprague-Dawley rats; for C*8hr/ EC50: potency-weighted 8-hr drug level; for AUC*/EC50: potency-weighted AUC; for AUC* TylA (metabolite): primary metabolite TylA; for improvement in plasma drug levels (AUC) over TylA / drug levels relative to 2'-OH partners 5c and 5d: rats
Experimental: PO doses were administrated by oral gavage, IP doses by intraperitoneal injection to BALB/c mice or Sprague-Dawley rats (Charles River Laboratories, USA). Serial blood samples collected into EDTA anticoagulant for plasma concentration analysis were obtained from each animal after dosing. EDTA preserved plasma samples were extracted by protein precipitation with acetonitrile fortified with internal standards. The supernatant was injected into an HPLC-MS/MS system for separation and quantitation. Detection was accomplished using a triple quadrupole mass spectrometer operated either in electrospray or atmospheric chemical ionization (APCI) mode. The area under the plasma concentration-time curve (AUC) was calculated using the linear trapezoidal rule.

[3] = Mouse pharmacokinetic study (plasma levels, IP or PO); assay type: in vivo, BALB/c mice
Experimental: PO doses were administrated by oral gavage, IP doses by intraperitoneal injection to BALB/c mice or Sprague-Dawley rats (Charles River Laboratories, USA). Serial blood samples collected into EDTA anticoagulant for plasma concentration analysis were obtained from each animal after dosing. EDTA preserved plasma samples were extracted by protein precipitation with acetonitrile fortified with internal standards. The supernatant was injected into an HPLC-MS/MS system for separation and quantitation. Detection was accomplished using a triple quadrupole mass spectrometer operated either in electrospray or atmospheric chemical ionization (APCI) mode. The area under the plasma concentration-time curve (AUC) was calculated using the linear trapezoidal rule. […] Plasma levels of TylA in BALB/c mice following IP or PO dosing (100 mg/kg).

MDR-MDCK monolayer = assay type: in vitro ADME, canine; settings: MDCK-MDR1
Description: Drug levels in the IP arm of this study were >30-fold higher than those achieved when the drug is given PO. […] Therefore, improving drug absorption by increasing permeability became a primary goal for our lead-optimization studies.

Litomosoides sigmodontis = Litomosoides sigmodontis larval mouse model (worm length); assay type: in vivo, BALB/c mice; settings: 35 days post-infection
Experimental: As described previously, female BALB/c mice or female jirds were infected at 6–8 weeks of age with L. sigmodontis larvae through the bites of Ornithonyssus bacoti mites. […] One day post infection, mice were dosed IP or PO with TylA (Sigma Aldrich, 200 mg/kg BID x 7 days), doxycycline hyclate (Sigma-Aldrich, 200 mg/kg BID x 14 days), or vehicle using a volume of 10 ml/kg. At 35 days post-infection mice were euthanized using an overdose of isoflurane; worms were recovered from the pleural cavity by pleural lavage, counted, sexed and staged for development into L4 and adult worms based on the difference of the buccal capsule through microscopic examination. Female worms were measured for length (mm) as a marker for development as previously described. Data were distributed in a non-parametric fashion, median and interquartile ranges are presented. For comparing the length of the female worms, the Mann-Whitney-U test was used to calculate statistical differences either against the vehicle treated or gold standard groups.

| Compound | C*8hr [2] | AUC* parent [2] | C*8hr/ EC50 [2] | AUC*/EC50 [2] | AUC* TylA (metabolite) [2] | improvement in plasma drug levels (AUC) over TylA ([2]; oral dosing) | activity against Wolbachia [1] | also measured |
| --- | --- | --- | --- | --- | --- | --- | --- | --- |
| CC[C@H]1OC(=O)C[C@@H](O)[C@H](C)[C@@H](O[C@@H]2O[C@H](C)[C@@H](O[C@H]3C[C@@](C)(O)[C@@H](O)[C@H](C)O3)[C@H](N(C)C)[C@H]2O)[C@@H](CC=O)C[C@@H](C)C(=O)/C=C/C(C)=C/[C@@H]1CO[C@@H]1O[C@H](C)[C@@H](O)[C@@H](OC)[C@H]1OC [1 (TylA), Tylosin A] | 0.5 ng/mL per mg/kg | 9.6 ng-hr/ml per mg/kg | 0.02 ng/ml/nM per mg/kg | 0.34 ng-hr/ml/nM per mg/kg |  |  |  | EC50 ([1]; C6/36, Wolbachia-infected insect cells, geometric mean (N), each N a duplicate measurement): 28 nM; drug levels IP arm relative to PO ([3]; BALB/c mice, 100 mg/kg IP or PO): > 30 fold; permeability (MDR-MDCK monolayer): < 0.1X10^-6 cm/sec; length of recovered worms (Litomosoides sigmodontis; 200 mg/kg IP BID x 7 days): notably shorter than controls; length of recovered worms (Litomosoides sigmodontis; 200 mg/kg PO BID x 7 days): minimal response |
| CCCCC(=O)OC1C(OC2C(CC=O)CC(C)C(=O)C=CC(C)=CC(COC3OC(C)C(O)C(OC)C3OC)C(CC)OC(=O)CC(O)C2C)OC(C)C(OC2CC(C)(O)C(O)C(C)O2)C1N(C)C (stereo not shown) [Compound 2c] | 2.5 ng/mL per mg/kg | 58 ng-hr/ml per mg/kg | 0.04 ng/ml/nM per mg/kg | 0.89 ng-hr/ml/nM per mg/kg | 1.2 ng-hr/ml per mg/kg | 6 fold |  | potency-weighted 8-hr drug level (C8hr/dose/EC50) relative to TylA ([2]; oral dosing): doubles; potency-weighted AUC (AUC*/EC50) relative to TylA ([2]; oral dosing): ~ 2.6 fold; metabolic stability of substituent / species observed in plasma ([2]; oral pharmacokinetic study): relatively metabolically stable |
| CCC1OC(=O)CC(O)C(C)C(OC2OC(C)C(OC3CC(C)(O)C(OC(=O)N(CC)CC)C(C)O3)C(N(C)C)C2OC(=O)C(C)C)C(CC=O)CC(C)C(=O)C=CC(C)=CC1COC1OC(C)C(O)C(OC)C1OC (stereo not shown) [Compound 4d] | 30 ng/mL per mg/kg | 420 ng-hr/ml per mg/kg | 1.25 ng/ml/nM per mg/kg | 17.5 ng-hr/ml/nM per mg/kg | 1.4 ng-hr/ml per mg/kg | 40–50 fold |  | drug levels relative to 2'-OH partners 5c and 5d ([2]; oral dosing): more than 10 fold |
| CC[C@H]1OC(=O)C[C@@H](O)[C@H](C)[C@@H](O[C@@H]2O[C@H](C)[C@@H](O[C@H]3C[C@@](C)(O)[C@@H](OCc4ccc(F)cc4)[C@H](C)O3)[C@H](N(C)C)[C@H]2OC(=O)C(C)C)[C@@H](CC=O)C[C@@H](C)C(=O)/C=C/C(C)=C/[C@@H]1CO[C@@H]1O[C@H](C)[C@@H](O)[C@@H](OC)[C@H]1OC [Compound 4e] | 30 ng/mL per mg/kg | 510 ng-hr/ml per mg/kg | 1.03 ng/ml/nM per mg/kg | 17.6 ng-hr/ml/nM per mg/kg | <0.6 ng-hr/ml per mg/kg | 40–50 fold |  | drug levels relative to 2'-OH partners 5c and 5d ([2]; oral dosing): more than 10 fold |
| CCCCC(=O)OC1C(C)OC(OC2C(C)OC(OC3C(CC=O)CC(C)C(=O)C=CC(C)=CC(COC4OC(C)C(O)C(OC)C4OC)C(CC)OC(=O)CC(O)C3C)C(O)C2N(C)C)CC1(C)O (stereo not shown) [Compound 5a] |  | <0.6 ng-hr/ml per mg/kg |  |  | 30 ng-hr/ml per mg/kg |  |  | potency improvement (EC50) over TylA ([1]; EC50 lower than parent TylA): 25 fold; parent ester in plasma ([3]; mice, oral, any time point): no sign of parent is observed; increase in oral drug levels upon 4"-acylation ([3]; mice, measured drug is deacylated metabolite TylA): ~ 3 fold |
| CCC1OC(=O)CC(O)C(C)C(OC2OC(C)C(OC3CC(C)(O)C(OC(=O)C(C)(C)C)C(C)O3)C(N(C)C)C2O)C(CC=O)CC(C)C(=O)C=CC(C)=CC1COC1OC(C)C(O)C(OC)C1OC (stereo not shown) [Compound 5b] | 3.0 ng/mL per mg/kg | 58 ng-hr/ml per mg/kg | 0.56 ng/ml/nM per mg/kg | 10.7 ng-hr/ml/nM per mg/kg | <0.6 ng-hr/ml per mg/kg | 6 fold |  | potency-weighted AUC (AUC*/EC50) relative to TylA ([2]; oral dosing): 30 fold; deacylated product TylA as share of total circulating drug ([2]; rat pharmacokinetic study, oral): < 1% |
| CO[C@@H]1[C@@H](O[C@@H]2O[C@H](C)[C@@H](O[C@H]3C[C@@](C)(O)[C@@H](OC(=O)CC(C)C)[C@H](C)O3)[C@H](N(C)C)[C@H]2O)[C@@H](CC=O)C[C@@H](C)[C@@H](O)/C=C/C=C/C[C@@H](C)OC(=O)C[C@H]1O [leucomycin] |  |  |  |  |  |  | inactive |  |
| CCC(=O)O[C@@H]1CC(=O)O[C@H](C)C/C=C/C=C/[C@H](O)[C@H](C)C[C@H](CC=O)[C@H](O[C@@H]2O[C@H](C)[C@@H](O[C@H]3C[C@@](C)(O)[C@@H](OC(=O)CC)[C@H](C)O3)[C@H](N(C)C)[C@H]2O)[C@H]1OC [midecamycin] |  |  |  |  |  |  | inactive |  |
| josmycin |  |  |  |  |  |  | inactive |  |
| spiramycin |  |  |  |  |  |  | inactive |  |
